# ± gives the expanded uncertainty stated by the source.
# How the values were obtained:
# [1] = Crystal; DTA
# [2] = Molar enthalpy of transition or fusion; details: Crystal; DSC
SMILES,Normal melting temperature [1],Molar enthalpy of transition or fusion [2]
CCCCCCCCCCCC(=O)O [dodecanoic acid],43.00 ± 0.53 °C,35.5 ± 1.6 kJ/mol
CCCCCCCCCC(=O)O [decanoic acid],31.10 ± 0.53 °C,27.2 ± 1.2 kJ/mol
CCCCCCCCCCCCCCCCCC [octadecane],27.80 ± 0.53 °C,61.6 ± 2.7 kJ/mol
